Key:
[1] = Plasma total cholesterol and HDL-cholesterol of rats fed a high-cholesterol diet; type: in vivo, rat (Sprague-Dawley); details: for HDL-C/TC ratio / HDL-C (HDL-cholesterol) / TC (Total cholesterol): 0.1% in 1% cholesterol diet, six weeks; for HDL-C/TC ratio: Control 28, listed as head is [formula]; for HDL-C (HDL-cholesterol): Control 38 ± 2; for TC (Total cholesterol): Control 135 ± 6; for increase of HDL-C/TC ratio / reduction of total plasma cholesterol level: as compared with control group
Excerpt: 40 three-week-old white Sprague-Dawley rats (Taihan laboratory animal center, Korea), each weighing about 90 to 110 g, were evenly divided into four dietary groups by a randomized block design. The rats of the four groups were fed with four different high-cholesterol diets, i.e., AIN-76 laboratory animal diet (ICN Biochemicals, Cleveland, Ohio, U.S.A.) containing 1% cholesterol (Control group); 1% cholesterol plus 0.1% 4-hydroxycinnamic acid (4-hydroxycinnamic acid group); 1% cholesterol plus 0.1% 3,4-dihydroxycinnamic acid (3,4-dihydroxycinnamic acid group); and 1% cholesterol plus 0.1% 3,4-dihydroxyhydrocinnamic acid (3,4-dihydroxyhydrocinnamic acid group), respectively.
The rats were allowed to feed freely on the specified diet together with water for six weeks, the ingestion amount was recorded daily and the rats were weighed every 7 days, and then the record was analyzed.
The effects of administering cinnamic acid derivatives to rats on the plasma cholesterol and neutral lipid contents were determined as follows.
The rats of the four dietary groups obtained in Step 1 were sacrificed and blood samples were taken therefrom. The blood was allowed to stand for 2 hours and centrifuged at 3,000 rpm for 15 minutes and the supernatant was separated and stored in a deep freezer before use. The chemical analysis of blood was carried out by employing a blood chemical analyzer (CIBA Corning 550 Express, USA) to determine the changes in total cholesterol and HDL-cholesterol levels.

ACAT = molecular target: T1, ACAT (Rattus norvegicus, UniProt Q7TQM4); assay: ACAT assay, liver microsomes of the fed rats; type: biochemical; details: liver microsomes of rats fed 0.1% in 1% cholesterol diet; Control 0
T1 construct: microsomes were separated from liver tissues to be used as an enzyme source; from tissue; host or cells: rat liver microsomes
T1 sequence (Q7TQM4 1-524): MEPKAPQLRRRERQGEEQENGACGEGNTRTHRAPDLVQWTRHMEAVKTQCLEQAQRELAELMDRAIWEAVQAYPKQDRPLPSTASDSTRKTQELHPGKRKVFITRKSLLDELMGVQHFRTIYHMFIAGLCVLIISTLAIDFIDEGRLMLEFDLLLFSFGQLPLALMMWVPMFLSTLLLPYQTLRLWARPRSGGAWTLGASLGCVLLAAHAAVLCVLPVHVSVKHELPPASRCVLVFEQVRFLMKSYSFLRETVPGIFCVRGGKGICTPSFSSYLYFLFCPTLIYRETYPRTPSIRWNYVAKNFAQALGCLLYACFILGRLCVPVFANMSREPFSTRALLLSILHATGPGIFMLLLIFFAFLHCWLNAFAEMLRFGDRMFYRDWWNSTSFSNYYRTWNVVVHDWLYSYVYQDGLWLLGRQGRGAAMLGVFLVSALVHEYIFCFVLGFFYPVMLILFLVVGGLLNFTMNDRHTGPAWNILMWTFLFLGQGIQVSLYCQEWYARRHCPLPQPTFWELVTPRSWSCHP
Procedure: To determine the effect of feeding cinnamic acid derivatives to rats on the activity of ACAT, microsomes were separated from liver tissues to be used as an enzyme source.
1 g each of the livers taken from each group of rats of Example 2 was homogenized in 5 ml of homogenization medium (0.1 M KH2 PO4, pH 7.4, 0.1 mM EDTA and 10 mM β-mercaptoethanol). The homogenate was centrifuged at 3,000×g for 15 min. at 4° C. and the supernatant thus obtained was centrifuged at 15,000×g for 15 min. at 4° C. to obtain a supernatant. The supernatant was put into an ultracentrifuge tube (Beckman) and centrifuged at 100,000×g for 1 hour at 4° C. to obtain microsomal pellets, which were then suspended in 3 ml of the homogenization medium and centrifuged at 100,000×g for 1 hour at 4° C. The pellets thus obtained were suspended in 1 ml of the homogenization medium. The protein concentration of the resulting suspension was determined by Lowry's method and then adjusted to 4 to 8 mg/ml. The resulting suspension was stored in a deep freezer (Biofreezer, Forma Scientific Inc.).
6.67 μl of 1 mg/ml cholesterol solution in acetone was mixed with 6 μl of 10% Triton WR-1339 (Sigma Co.) in acetone and, then, acetone was removed from the mixture by evaporation under a nitrogen flow. Distilled water was added to the resulting mixture to adjust the concentration of cholesterol to […].
Added to 10 μl of the resulting aqueous cholesterol solution were 10 μl of 1 M KH2 PO4 (pH 7.4), 5 μl of 0.6 mM bovine serum albumin (BSA), 10 μl of microsome solution obtained in (Step 1) and 55 μl of distilled water (total 90 μl). The mixture was pre-incubated in a water bath at 37° C. for 30 min. […]
200 μl of the resulting supernatant was put in a scintillation bottle and 4 ml of scintillation fluid (Lumac) was added thereto. The mixture was assayed for radioactivity with 1450 Microbeta liquid scintillation counter (Wallacoy, Finland). ACAT activity was calculated as picomoles of cholesteryl oleate synthesized per min. per mg protein (pmoles/min/mg protein).

[2] = Acute oral toxicity in ICR mice; type: in vivo, mouse
Procedure: 12 seven-week-old, specific pathogen-free ICR […] mice, six female mice each weighing about 25 to 29 g and six male mice each weighing about 34 to 38 g, were kept under an environment of 22±1° C., 55±5% relative humidity and 12L/12D photoperiod. Fodder (Cheiljedang Co., mouse and rat fodder) and water were sterilized and fed to the mice.
4-hydroxycinnamic acid purchased from Aldrich-Sigma Chemical Co. (St. Louis, Mo., U.S.A) was dissolved in 0.5% Tween 80 to a concentration of 100 mg/ml, and the solution was orally administered to the mice in an amount of 0.2 ml per 20 g of mouse body weight. […] Further, on the 10th day, the mice were sacrificed and the internal organs were visually examined.

[3] = Plasma cholesterol and triglyceride in two men with hyperlipidemia; type: in vivo, human; details: 10 mg/kg daily oral capsule, 60 days
Procedure: Two men in their mid-fifties, suffered by hyperlipidemia with blood cholesterol level ranging from 230 to 270 mg/dl and blood triglyceride level ranging from 200 to 220 mg/dl, were administered with a daily oral dose of 10 mg/kg of 4-hydroxycinnamic acid in the form of a capsule for 60 days. The plasma cholesterol and triglyceride contents were determined before and after the administration.

Row | Structure (SMILES) | HDL-C/TC ratio [1] | HDL-C (HDL-cholesterol) [1] [mg/dL] | TC (Total cholesterol) [1] [mg/dL] | increase of HDL-C/TC ratio [1] [%] | reduction of total plasma cholesterol level [1] [%] | Inhibition on ACAT activity (ACAT) [%] | autopsy, internal organs ([2]; oral 1,000 mg/kg, 10th day) | weight changes ([2]; oral 1,000 mg/kg, 10 day test period) | survival ([2]; oral 1,000 mg/kg, day 10) | toxicity ([2]; single oral dose 1,000 mg/kg, mice, 10 days) | reduction of plasma cholesterol content [3] [%] | reduction of plasma triglyceride content [3] [%]
1 | O=C(O)/C=C/c1ccc(O)c(O)c1 [3,4-dihydroxycinnamic acid] | 33 | 39 ± 3 | 118 ± 6 | 18 | 13 | 7 |  |  |  |  |  | 
2 | O=C(O)CCc1ccc(O)c(O)c1 [3,4-dihydroxyhydrocinnamic acid] | 35 | 45 ± 4 | 127 ± 4 | 25 | 6 | 20 |  |  |  |  |  | 
3 | O=C(O)/C=C/c1ccc(O)cc1 [4-Hydroxycinnamic acid, 4-hydroxycinnamic acid] | 56 | 57 ± 3 | 102 ± 6 | 100 | 24 | 17 | had not developed any pathological abnormality | no weight loss was observed | All the mice were alive | showed no toxicity | 25 | 20

From patent US6313171A, “Method for preventing or treating elevated blood lipid level-related diseases by administering cinnamic acid derivatives” (Korea Research Institute of Bioscience & Biotechnology, priority 1998, dated 2001)
